Reference: patent US20250188088A1, “COMPOUND AND USE THEREOF” (ONQUALITY PHARMACEUTICALS CHINA LTD., priority 2022, published 2025)
In brackets after ≈: the same amount, converted by molar mass. Read-outs that look alike come from different tables or passages of the source.

Columns and labels:
[1] = Log D measurement (n-octanol/PBS shake, LC-MS/MS); format: physicochemical; conditions: pH 7.4, read-out: LogD7.4 (Oct/buff)
Protocol: Two replicates of test compounds (DMSO stock solution 10 mM, 2 μL/well) and QCs (DMSO 10 mM, 2 μL/well) were transferred from the storage tube to a 96-well cluster tube. Add buffer-saturated n-octanol ([…]) and n-octanol-saturated PBS (149 μL/well) to each well; vortex mix the cluster tube for 1 minute, mix by shaking on a plate shaker at 880 rpm for one hour, and then centrifuge at 4000 rpm for 10 minutes. Remove the cover pad, accurately measure a certain amount of n-octanol layer samples (4 μL/well) into a 96-well plate containing n-octanol internal standard diluent (796 μL/well); accurately measure a certain amount of buffer salt layer samples (30 μL/well) into a 96-well plate containing buffer internal standard diluent (570 μL/well); the dilution factor of the sample can be adjusted according to different properties of the sample. Samples were analyzed using a triple quadrupole mass spectrometer. The processed sample solution was analyzed by the fast isocratic elution and small column retention method, the concentration correction was carried out by dilution factor and internal standard, and the ratio of the corrected peak area was used to calculate the final result (Log D/Log P value).

[2] = tested on: rash caused by monoclonal EGFR inhibitors; test: Prevention of rash caused by monoclonal EGFR inhibitors, topical ointment, rat model; format: in vivo, SD rats
Protocol: An Experiment to Verify the Prevention of Rash Caused by Monoclonal EGFR Inhibitors with Topical Administration of Compounds of the Present Application on a Rat Animal Model After the SD rats were fed and adapted for one week (about 200 g), the rats were divided into 10 rats per group. The hair on the back of rats was gently removed with an electric razor one day before the experiment, and then an administration test was carried out. The experiments were divided into the administration group with the compound of the present application and the control group. The EGFR monoclonal antibody solution diluted with normal saline was injected via the tail vein twice a week, and the injection rate and time are shown in Table 2. After injection, the administration group applied the compound ointment of the present application on the backs (about 3 cm*3 cm) of rats every day, and the control group applied blank matrix ointment (about 0.5 g) to the backs (about 3 cm*3 cm) of rats every day. After drug application, the rats were fixed with a fixed cyclinder for 4 h; after that, the rats were released and the residual drug at the application site was wiped off with clear water. Monoclonal antibody EGFR inhibitors were injected via the tail vein twice a week, and the compound of the present application and blank ointment were applied once a day until obvious rashes appeared in the control group. […] Table 2 lists the animal experiment combinations of various monoclonal antibody EGFR inhibitors and the compound ointment of the present application, as well as the corresponding experiment results (wherein, the value in the control rate column=the number of rats whose rash is milder in the administration group than that in the control group/the total number of rats in the administration group×100%).

[3] = Thermodynamic solubility assay (PBS pH 6.5; isopropyl myristate); format: physicochemical; conditions: thermodynamic from solid
Protocol: Thermodynamic Solubility Assay
Weigh not less than 2 mg of the sample powder into a Whatman Mini-UniPrep vial. If it is required to test the thermodynamic solubility of samples in multiple buffers, a separate vial is needed for each test; add 450 μL of buffer to each Whatman Mini-UniPrep vial, respectively; after that, install the piston cap of Whatman Mini-UniPrep and press it above the liquid level, so that the filter is in contact with the buffer during shaking; shake the solubility sample by vortexing for 1 minute.
Inject 3 UV standard solutions from low to high concentrations into the HPLC, then inject the diluent and supernatant of the test compound, with two replicates of test sample; and integrate the UV peaks. Simulate a standard curve and calculate the thermodynamic solubility of the sample.

[4] = tested on: rash caused by small molecule EGFR inhibitors; test: Prevention of rash caused by small molecule EGFR inhibitors, topical ointment, rat model; format: in vivo, SD rats
Description: An Experiment to Verify the Prevention of Rash Caused by Small Molecule EGFR Inhibitors with Topical Administration of Compounds of the Present Application on a Rat Animal Model A rat animal model was established. After daily gavage of a small molecule EGFR inhibitor to female SD rats for […], the rats developed extensive rashes on their backs several days later (picture shown in FIG. 1). […] Similar to humans, rats developed skin rashes on their faces and bodies after oral administration of small molecule EGFR inhibitors. Both of them had the same etiology and very similar symptoms. Therefore, rats are a proper animal model for mimicking EGFR inhibitor-induced rash. After the SD rats were fed and adapted for one week (about 200 g), the rats were divided into 10 rats per group. The hair on the back of rats was gently removed with an electric razor one day before the experiment, and then an intragastric administration test was carried out. EGFR inhibitors were dissolved in a sterile aqueous solution, and diluted with PBS buffer; the amount of each gavage was not more than 2 mL, and the dosage was shown in Table 1. The experiment comprised the administration group and the control group. After intragastric administration, apply the ointment (type and concentration are shown in Table 1) of the compound used in the present application to the backs (about 3 cm*3 cm) of rats in the administration group; apply blank matrix ointment (about 0.5 g) to the backs (about 3 cm*3 cm) of rats in the control group; fix the rats with a fixed cylinder for about 4 hours after drug application, release the rats after 4 hours, wipe off the residual drug at the application site with clean water, and put them back into the cage. The frequency of intragastric administration of EGFR inhibitors is shown in Table 1, but the compounds of the present application and blank matrix ointment are applied only once a day. The intragastric administration and application test were repeated daily until an obvious rash appeared in the control group. […] Table 1 lists the animal experiment combination of various small molecule EGFR inhibitors and the compound ointment of the present application, as well as the corresponding experiment results (wherein, the value in the control rate column=the number of rats whose rash is milder in the administration group than that in the control group/the total number of rats in the administration group×100%).

[5] = tested on: skin contact delayed-type hypersensitivity; test: Skin contact delayed-type hypersensitivity (DNFB) response test, ear swelling, topical ointment; format: in vivo; conditions: topical to ears, DNFB DTH, Balb/c mice, compared to blank ointment
Description: Therapeutic Effect of Topical Administration of Compounds of the Present Application in Skin Contact Delayed-Type Hypersensitivity Response Test in Mice Delayed-type hypersensitivity (DTH) response in mouse skin is considered to be an effective model for clinical contact dermatitis and other T cell-mediated cutaneous immune diseases, such as atopic dermatitis and psoriasis. The DTH in mice shares the common features with these cutaneous immune diseases, including immunoinfiltration with an increase of inflammatory cytokines and hyperproliferation of keratinocytes. Balb/c mice were sensitized by topical administration of the antigen 2,4-dinitrofluorobenzene (DNFB) to the shaved back of mice on Days 0 and 1. On Day 5, the thickness of the ears was measured using an engineering micrometer. The measurement result was recorded and used as a baseline. The animals were then challenged with a total of 20 μL of DNFB (10 μL for the internal pinna and 10 μL for the external pinna) topically dosed to both ears at a concentration of 0.2%. The ears were measured again 24-72 hours after challenge. The compound ointment of the present application was applied topically to the ears of the animals throughout the allergic and challenge periods (Days −1˜7) or before or throughout the challenge period (generally Days 4˜7). The therapeutic effect was expressed by a reduction in ear swelling compared to that of the blank ointment. The compound causing a reduction of 20% or more was considered effective. Table 5 lists the skin contact delayed-type hypersensitivity experiment results in mice treated with the compound of the present application.

[6] = Plasma stability, mini pig plasma; format: in vitro ADME, Mini Pigs; conditions: 37° C.
[7] = Plasma stability, human plasma; format: in vitro ADME, Humans; conditions: 37° C.
[8] = aqueous buffer, PBS buffer pH 6.5, about 25° C., read-out: Thermodynamic Solubility pH = 6.5
[9] = oil or lipid, isopropyl myristate as vehicle, about 25° C., read-out: Thermodynamic Solubility in Isopropyl Myristate

CCCC(CC)C(=O)OCCN(C)C(=O)n1ccc2c(N(C)[C@H]3CN(C(=O)CC#N)CC[C@H]3C)ncnc21 (stereo partly drawn) [Compound A12]
logD [1]: 2.72 | Control Rate ([2]; Cetuximab 100 mg/kg twice a week via tail vein, ointment 0.3 wt% once a day, 10 days): 20% | Control Rate ([2]; Cetuximab 100 mg/kg twice a week via tail vein, ointment 3.0 wt% once a day, 10 days): 70% | Control Rate ([2]; Cetuximab 100 mg/kg twice a week via tail vein, ointment 10.0 wt% once a day, 10 days): 85% | Control Rate ([2]; Panitumumab 10 mg/kg twice a week via tail vein, ointment 1.0 wt% once a day, 14 days): 50% | Control Rate ([2]; Panitumumab 10 mg/kg twice a week via tail vein, ointment 5.0 wt% once a day, 14 days): 60% | Control Rate ([2]; Panitumumab 10 mg/kg twice a week via tail vein, ointment 10.0 wt% once a day, 14 days): 60% | solubility thermodynamic at 24 h [3, 8]: 16 µg/mL (≈ 30.4 µM) | solubility thermodynamic at 24 h [3, 9]: 339 µg/mL (≈ 646 µM) | Control Rate ([4]; Afatinib 40 mg/kg once a day, ointment 1.0 wt% once a day, 14 days): 60% | Control Rate ([4]; Afatinib 40 mg/kg once a day, ointment 3.0 wt% once a day, 14 days): 75% | Control Rate ([4]; Afatinib 40 mg/kg once a day, ointment 5.0 wt% once a day, 14 days): 90% | Control Rate ([4]; EAI045 80 mg/kg once a day, ointment 1.0 wt% once a day, 11 days): 60% | Control Rate ([4]; EAI045 80 mg/kg once a day, ointment 10.0 wt% once a day, 11 days): 70% | Control Rate ([4]; Erlotinib 70 mg/kg once a day, ointment 0.3 wt% once a day, 14 days): 20% | Control Rate ([4]; Erlotinib 70 mg/kg once a day, ointment 3.0 wt% once a day, 14 days): 50% | Control Rate ([4]; Osimertinib 60 mg/kg twice a day, ointment 0.3 wt% once a day, 10 days): 50% | Control Rate ([4]; Osimertinib 60 mg/kg twice a day, ointment 5.0 wt% once a day, 10 days): 80%

CCC(CC)C(=O)OCCN(C)C(=O)n1ccc2c(N(C)[C@H]3CN(C(=O)CC#N)CC[C@H]3C)ncnc21 [Compound A10]
logD [1]: 2.07 | solubility thermodynamic at 24 h [3, 8]: 233 µg/mL (≈ 456 µM) | solubility thermodynamic at 24 h [3, 9]: 1830 µg/mL (≈ 3580 µM)

C[C@@H]1CCN(C(=O)CC#N)C[C@@H]1N(C)c1ncnc2c1ccn2C(=O)N(C)CCOC(=O)C1CC(F)(F)C1 [Compound A1]
logD [1]: 1.45 | solubility thermodynamic at 24 h [3, 8]: 645 µg/mL (≈ 1210 µM) | solubility thermodynamic at 24 h [3, 9]: 878 µg/mL (≈ 1650 µM)

COCCOCC(=O)OCCN(C)C(=O)n1ccc2c(N(C)[C@H]3CN(C(=O)CC#N)CC[C@H]3C)ncnc21 [Compound A18]
logD [1]: 0.23 | Reduction Rate of Ear Swelling ([5]; ointment 0.1 wt%): 23% | Reduction Rate of Ear Swelling ([5]; ointment 1.0 wt%): 29% | Reduction Rate of Ear Swelling ([5]; ointment 5.0 wt%): 37% | Reduction Rate of Ear Swelling ([5]; ointment 10.0 wt%): 45% | half-life at 2 µM [6]: 9.1 min | % Retained ([6]; 0 min): 100.0% | % Retained ([6]; 10 min): 57.3% | % Retained ([6]; 30 min): 13.5% | % Retained ([6]; 60 min): 1.3% | % Retained ([6]; 120 min): 0.0% | solubility thermodynamic at 24 h [3, 8]: > 4840 µg/mL | solubility thermodynamic at 24 h [3, 9]: 54.7 µg/mL (≈ 103 µM) | Control Rate ([4]; BPI-7711 60 mg/kg once a day, ointment 3.0 wt% once a day, 14 days): 70% | Control Rate ([4]; EAI045 80 mg/kg once a day, ointment 0.3 wt% once a day, 11 days): 30% | Control Rate ([4]; EAI045 80 mg/kg once a day, ointment 3.0 wt% once a day, 11 days): 70% | Control Rate ([4]; EAI045 80 mg/kg once a day, ointment 5.0 wt% once a day, 11 days): 90% | Control Rate ([4]; Zorifertinib 60 mg/kg once a day, ointment 3.0 wt% once a day, 12 days): 60% | half-life at 2 µM [7]: 1.9 min | % Retained ([7]; 0 min): 100.0% | % Retained ([7]; 10 min): 2.6% | % Retained ([7]; 30 min): 0.0% | % Retained ([7]; 60 min): 0.0% | % Retained ([7]; 120 min): 0.0%

C[C@@H]1CCN(C(=O)CC#N)C[C@@H]1N(C)c1ncnc2c1ccn2C(=O)N(C)CCOC(=O)C1CCOC1 (stereo partly drawn) [Compound A8]
logD [1]: 0.56 | solubility thermodynamic at 24 h [3, 8]: 2940 µg/mL (≈ 5750 µM) | solubility thermodynamic at 24 h [3, 9]: 208 µg/mL (≈ 407 µM)

C[C@@H]1CCN(C(=O)CC#N)C[C@@H]1N(C)c1ncnc2c1ccn2C(=O)N(C)CCOC(=O)C1CCC1 [Compound A4]
logD [1]: 2.35 | solubility thermodynamic at 24 h [3, 8]: 486 µg/mL (≈ 981 µM) | solubility thermodynamic at 24 h [3, 9]: 1250 µg/mL (≈ 2520 µM)
